# US20200171026A1, “PROSTACYCLIN RECEPTOR AGONISTS FOR REDUCTION OF BODY FAT” (Allergan, Inc., priority 2017, published 2020)
# Assays:
# human adipocytes = assay: human adipocyte lipolysis assay (glycerol released into the medium); assay type: cell-based; details: for glycerol release / lipolytic activity in human adipocytes (FIG. 2): fully differentiated human adipocytes, 1 μM
# Description: Two weeks after the initiation of differentiation, differentiated cells appeared rounded with large lipid droplets apparent in the cytoplasm, and were thereby considered mature adipocytes. At this time, the differentiation medium was washed out. Two days after washing out the differentiation agents, the mature adipocytes were treated with different concentrations of PGI2 receptor agonist compounds cicaprost, beraprost, FK-788 and selexipag. Lipolytic activity was assessed by the measurement of glycerol released into the medium from triglyceride breakdown. In this experiment, lipolysis was measured using a human adipocyte lipolysis assay kit (ZenBio, Inc., Research Triangle Park, N.C., Cat #LIP-1-SPF).
# The data are provided in FIG. 1 and are expressed as fold induction over a buffer control (mature adipocytes treated with vehicle buffer in the absence of any agonist). Each data point on the graph in FIG. 1 represents the mean±SEM of 2 to 8 experiments.
# The in vitro human adipocytes lipolysis results for cicaprost and FK-788 from Example 1 at the 1 μM concentration were compared to lipolysis induced by those compounds in ex vivo mouse adipocytes, which are commonly used to detect lipolytic activity.
# [1] = system: fat in the triceps region; assay: In vivo human study, topical ointment, body fat calipers in triceps region; details: human subjects; topical ointment 0.003%, 0.03% or 0.3% daily; 6 months
# Description: The following experiment describes a randomized, double-blind study in human subjects to test whether compounds according to the present disclosure, including topical FK-788, reduces fat in the body of individuals.
# Multiple human subjects (both male and female), for example, with body mass indices of 30 or more but otherwise healthy, are entered into a randomized double-blind study. Either the left or the right arm is randomized to receive topical FK-788; the other arm receives vehicle only. FK-788 is supplied in a petrolatum-based ointment (the vehicle) at a final concentration of 0%, 0.003%, 0.03% or 0.3%. Ointment containers are unlabeled as to the presence or concentration of FK-788.
# Each day, subjects apply a thin film of ointment to the skin over the respective triceps while wearing new, clean surgical gloves. Subjects are instructed to refrain from washing the treated area for at least 8 hours and are instructed to refrain from wearing tight clothing or occlusive dressings that will come into contact with the treated area.
# Body fat calipers are used to measure fat in the triceps region bilaterally on a weekly basis. The study continues for 6 months. […] As a result, this contemplated outcome will show, in vivo, that compounds according to the present invention, including FK-788, can reduce fat.
# [2] = fold induction over buffer control
"relative potency among the PGI2 receptor agonists tested (human adipocytes; human mature adipocytes, cicaprost, beraprost, FK-788 and selexipag compared)",SMILES,glycerol release / lipolytic activity in human adipocytes (FIG. 2) (human adipocytes; [2]),fat in treated arm compared to vehicle-treated arm [1],"increase in glycerol production (human adipocytes; human mature adipocytes, concentration of about 0.1 μM, fold induction over buffer control)"
–,"O=C(O)COc1cccc2c1CC[C@](O)(COC(=O)N(c1ccccc1)c1ccccc1)C2 [FK-788, 2-[[(6R)-6-[di(phenyl)carbamoyloxymethyl]-6-hydroxy-7,8-dihydro-5H-naphthalen-1-yl]oxy]acetic acid]",increased glycerol release,lower fat,–
most potent agonist,"CCC#CC[C@H](C)[C@H](O)C#C[C@@H]1[C@H]2C/C(=C/COCC(=O)O)C[C@H]2C[C@H]1O [cicaprost, 2-[(2E)-2-[(3aS,4S,5R,6aS)-5-hydroxy-4-[(3S,4S)-3-hydroxy-4-methylnona-1,-6-diynyl]-3,3a,4,5,6,6a-hexahydro-1H-pentalen-2-ylidene]ethoxy]acetic acid]",increased glycerol release,–,approximately 3 fold
